Experiments:
brain = assay: Matured TTM-001 and TTM-002 variants, NGS enrichment in mouse brain; assay type: in vivo, mice; details: NGS fold-enrichment, mouse brain, relative to AAV9 control
[1] = system: brains, heart, liver, muscle, and DRG of the NHPs; assay: Maturation of TTM-001 and TTM-002 capsids, NGS enrichment in NHP tissues; assay type: in vivo; details: relative to AAV9 control; for Fold Enrichment relative to AAV9, Brain (NHP): NGS fold-enrichment of RNA; for Fold Enrichment relative to AAV9, DRG (NHP) / Fold Enrichment relative to AAV9, Heart (NHP) / Fold Enrichment relative to AAV9, Liver DNA (NHP) / Fold Enrichment relative to AAV9, Liver RNA (NHP) / Fold Enrichment relative to AAV9, Muscle (NHP): NGS fold-enrichment
Method in brief: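 Variants carry mutations within and flanking the loop IV peptide insert: positions 450–466 were triplet-randomized, while positions 449–466 received low-frequency point mutations. The combined pool went into two NHPs, and each peptide was scored by NGS enrichment ratio against AAV9.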

Sequence | Fold Enrichment relative to AAV9, Brain (Mouse) (brain) | Fold Enrichment relative to AAV9, Brain (NHP) [1] | Fold Enrichment relative to AAV9, DRG (NHP) [1] | Fold Enrichment relative to AAV9, Heart (NHP) [1] | Fold Enrichment relative to AAV9, Liver DNA (NHP) [1] | Fold Enrichment relative to AAV9, Liver RNA (NHP) [1] | Fold Enrichment relative to AAV9, Muscle (NHP) [1]
KTINGHDSPHKSGRTQET | 7.270 fold | 81.599 fold | 0.000 fold | 0.062 fold | 0.137 fold | 0.000 fold | 0.000 fold
KTINGHDSPHKSNAWQQT | 15.788 fold | 84.825 fold | 0.000 fold | 0.016 fold | 0.132 fold | 0.000 fold | 0.000 fold
KTINGHDSPHKSRLNQPT | 5.598 fold | 92.883 fold | 0.000 fold | 0.070 fold | 1.075 fold | 0.904 fold | 0.050 fold
KTINGHDSPHKSRQDQHT | 8.540 fold | 75.595 fold | 0.000 fold | 0.049 fold | 0.045 fold | 0.030 fold | 0.118 fold
KTINGHDSPHKSRQSQHT | 8.324 fold | 88.544 fold | 0.499 fold | 0.046 fold | 0.032 fold | 0.059 fold | 0.000 fold
KTINGHDSPHKSVQNHLN | 14.557 fold | 196.758 fold | 0.000 fold | 0.000 fold | 0.000 fold | 0.000 fold | 0.000 fold
KTINGHDSPHKSVQTHQT | 7.519 fold | 77.309 fold | 0.237 fold | 0.062 fold | 0.116 fold | 0.000 fold | 0.000 fold
KTINGHDSPHKSWVRQQT | 11.687 fold | 125.537 fold | 0.000 fold | 0.033 fold | 0.174 fold | 0.291 fold | 0.000 fold
KTINGHDSPHKTGQNQPP | 8.865 fold | 77.357 fold | 0.000 fold | 0.149 fold | 0.096 fold | 0.000 fold | 0.000 fold
KTINGHDSPHKTGQNQQK | 6.379 fold | 77.562 fold | 0.000 fold | 1.056 fold | 0.000 fold | 0.000 fold | 0.000 fold
KTINGHESPHKSAQNRQT | 4.815 fold | 95.531 fold | 0.000 fold | 0.113 fold | 0.082 fold | 0.130 fold | 0.000 fold

— patent US20260250318A1, “COMPOSITIONS AND METHODS FOR CROSSING THE BLOOD BRAIN BARRIER” (VOYAGER THERAPEUTICS, INC., priority 2022, published 2026)
